Results published in the supplement of paper PMC11061612.

Columns and labels:
Experiment in all cases: Bliss excess, mean over the matrix (fraction); higher = more synergy
Saos-2 (Osteosarcoma) = test system: Saos-2 (Osteosarcoma)
Summary of the method: (§1)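 After 24 hours at 37°C and 5% CO2 in 1536-well plates, cells in DMEM/F12 or RPMI plus 10% FBS received two-drug dose matrices for 72 hours. Viability came from CellTiter-Glo 2.0 luminescence and was scaled as inhibition, anchored at 0 by vehicle wells and at 1 by blank wells. Combination Emax is taken as the second-highest inhibition in the matrix, and Bliss excess as the observed combination effect less EA + EB − EA·EB, with EA and EB the single-agent effects.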

MCF7 (Breast Carcinoma) = test system: MCF7 (Breast Carcinoma)
Summary of the method: as §1

[1] = test system: HCC1143 (Breast Carcinoma)
Summary of the method: as §1

D-392MG (Glioblastoma) = test system: D-392MG (Glioblastoma)
Summary of the method: as §1

[2] = test system: PA-TU-8902 (Pancreatic Carcinoma)
Summary of the method: as §1

[3] = test system: YT (Other Blood Carcinomas)
Summary of the method: as §1

[4] = test system: HLE (Hepatocellular Carcinoma)
Summary of the method: as §1

SK-MEL-1 (Melanoma) = test system: SK-MEL-1 (Melanoma)
Summary of the method: as §1

[5] = test system: KG-1 (Acute Myeloid Leukemia)
Summary of the method: as §1

[6] = test system: CAL-39 (Other Solid Carcinomas)
Summary of the method: as §1

[7] = test system: DOK (Oral Cavity Carcinoma)
Summary of the method: as §1

[8] = test system: SK-LMS-1 (Other Solid Carcinomas)
Summary of the method: as §1

Row | Structure (SMILES) | Bliss excess (Saos-2 (Osteosarcoma)) | Bliss excess (MCF7 (Breast Carcinoma)) | Bliss excess [1] | Bliss excess (D-392MG (Glioblastoma)) | Bliss excess [2] | Bliss excess [3] | Bliss excess [4] | Bliss excess (SK-MEL-1 (Melanoma)) | Bliss excess [5] | Bliss excess [6] | Bliss excess [7] | Bliss excess [8]
1 | CN(CCO)CC[C@H](CSc1ccccc1)Nc1ccc(S(=O)(=O)NC(=O)c2ccc(N3CCC([C@@H](O)c4ccccc4-c4ccc(Cl)cc4)CC3)cc2)cc1S(=O)(=O)C(F)(F)F [AZD4320] + C=CCn1c(=O)c2cnc(Nc3ccc(N4CCN(C)CC4)cc3)nc2n1-c1cccc(C(C)(C)O)n1 [AZD1775] (first compound max 1 µM, partner max 1 µM) | 0.0348 | -0.0008 | -0.0111 | 0.0474 | -0.0357 | -0.0156 | 0.0906 | -0.0091 | 0.108 | -0.0529 | -0.0273 | 0.0447
2 | CN(CCO)CC[C@H](CSc1ccccc1)Nc1ccc(S(=O)(=O)NC(=O)c2ccc(N3CCC([C@@H](O)c4ccccc4-c4ccc(Cl)cc4)CC3)cc2)cc1S(=O)(=O)C(F)(F)F [AZD4320] + CCN(CCO)CCCOc1ccc2c(Nc3cc(CC(=O)Nc4cccc(F)c4)[nH]n3)ncnc2c1 [AZD2811] (first compound max 1 µM, 7x7, partner max 1 µM) | 0.0831 | 0.0189 | -0.0091 | 0.114 | -0.0403 | -0.0344 | 0.0338 | -0.0353 | 0.0803 | 0.0236 | 0.0043 | 0.0619
3 | CN(CCO)CC[C@H](CSc1ccccc1)Nc1ccc(S(=O)(=O)NC(=O)c2ccc(N3CCC([C@@H](O)c4ccccc4-c4ccc(Cl)cc4)CC3)cc2)cc1S(=O)(=O)C(F)(F)F [AZD4320] + CN(C)CCCOc1ccc(-c2ccc3ncc4c(c3c2)n(C2CCOCC2)c(=O)n4C)cn1 [AZD0156] (first compound max 1 µM, 7x7, partner max 1 µM) | -0.0323 | -0.051 | 0.0124 | -0.044 | -0.0511 | -0.0281 | -0.0209 | -0.0254 | 0.0215 | -0.0247 | -0.0332 | -0.0477
4 | CN(CCO)CC[C@H](CSc1ccccc1)Nc1ccc(S(=O)(=O)NC(=O)c2ccc(N3CCC([C@@H](O)c4ccccc4-c4ccc(Cl)cc4)CC3)cc2)cc1S(=O)(=O)C(F)(F)F [AZD4320] + C[C@@H]1COCCN1C2=NC(=NC(=C2)C3(CC3)[S@](=N)(=O)C)C4=C5C=CNC5=NC=C4 [AZD6738] (first compound max 1 µM, 7x7, partner max 10 µM) | 0.0256 | -0.0145 | -0.0812 | -0.0094 | -0.0378 | -0.0251 | 0.0036 | -0.0757 | 0.0279 | -0.0685 | -0.0269 | -0.0432
5 | CN(CCO)CC[C@H](CSc1ccccc1)Nc1ccc(S(=O)(=O)NC(=O)c2ccc(N3CCC([C@@H](O)c4ccccc4-c4ccc(Cl)cc4)CC3)cc2)cc1S(=O)(=O)C(F)(F)F [AZD4320] + Cc1cc2ncnn2cc1Nc1ncc2c(n1)n(C1CCOCC1)c(=O)n2C [AZD7648] (first compound max 1 µM, 7x7, partner max 10 µM) | -0.0389 | -0.0357 | -0.0021 | -0.0614 | -0.0429 | 0.0291 | -0.0295 | -0.025 | 0.0526 | -0.03 | -0.0178 | 0.001
6 | Cc1c2c(nn1C)CSCc1cc(n(C)n1)CSc1cc(c3ccccc3c1)OCCCc1c(C(=O)O)n(C)c3c-2c(Cl)ccc13 [AZD5991] + C=CCn1c(=O)c2cnc(Nc3ccc(N4CCN(C)CC4)cc3)nc2n1-c1cccc(C(C)(C)O)n1 [AZD1775] (first compound max 1 µM, partner max 1 µM) | – | -0.0622 | 0.0689 | 0.116 | -0.0326 | -0.0725 | 0.0017 | -0.0137 | 0.0391 | 0.0957 | -0.0235 | -0.0388
7 | Cc1c2c(nn1C)CSCc1cc(n(C)n1)CSc1cc(c3ccccc3c1)OCCCc1c(C(=O)O)n(C)c3c-2c(Cl)ccc13 [AZD5991] + C[C@@H]1COCCN1C2=NC(=NC(=C2)C3(CC3)[S@](=N)(=O)C)C4=C5C=CNC5=NC=C4 [AZD6738] (first compound max 1 µM, 7x7, partner max 10 µM) | -0.0135 | 0.0286 | 0.0032 | -0.0053 | 0.0111 | -0.0498 | 0.0075 | -0.0255 | 0.0155 | -0.0411 | – | -0.0471
8 | Cc1c2c(nn1C)CSCc1cc(n(C)n1)CSc1cc(c3ccccc3c1)OCCCc1c(C(=O)O)n(C)c3c-2c(Cl)ccc13 [AZD5991] + Cc1cc2ncnn2cc1Nc1ncc2c(n1)n(C1CCOCC1)c(=O)n2C [AZD7648] (first compound max 1 µM, 7x7, partner max 10 µM) | -0.014 | 0.0011 | 0.0124 | -0.0664 | – | 0.0305 | -0.0253 | -0.0152 | -0.0136 | -0.0466 | 0.0115 | -0.0392
9 | C[C@@H]1COCCN1c1cc(C2([S@](C)(=N)=O)CC2)nc(-c2ccnc3[nH]ccc23)n1 [AZD6738] + O=C(c1cc(Cc2n[nH]c(=O)c3ccccc23)ccc1F)N1CCN(C(=O)C2CC2)CC1 [Olaparib] (first compound max 10 µM, 7x7, partner max 10 µM) | 0.0118 | 0.0135 | -0.0284 | -0.0067 | -0.0251 | -0.0376 | -0.0562 | -0.0012 | -0.0154 | – | 0.0048 | 0.0027
10 | CCc1c2c(nc3ccc(O)cc13)-c1cc3c(c(=O)n1C2)COC(=O)[C@]3(O)CC [SN-38] + O=C(c1cc(Cc2n[nH]c(=O)c3ccccc23)ccc1F)N1CCN(C(=O)C2CC2)CC1 [Olaparib] (first compound max 0.3 µM, 7x7, partner max 10 µM) | 0.0247 | 0.0115 | – | 0.0711 | 0.086 | -0.0409 | 0.0335 | 0.0387 | – | 0.081 | 0.0284 | 0.0057
